One test concerns GP2D cells. Description: Cell proliferation assay (CellTiter-Glo), K-Ras G12D cells. The test is classed as cell-based. The settings on record: read-out: Inhibition of GP2D Cells (IC50). How it is done: ASPC-1 (ATCC CRL-1682), Panc-10.05 (ATCC CRL-2547), A427, and GP2D (Sigma 95090714) cell lines comprise a G12D mutation and can be used to assess Ras cellular signaling in vitro, e.g., in response to the compounds herein. […] ASPC-1 culture medium is prepared with RPMI-1640 and 10% heat-inactivated FBS. Panc-10.05 culture medium is prepared with RPMI-1640, 10 Units/ml human recombinant insulin, and 10% FBS. A427 cell culture is prepared with RPMI-1640 and 10% heat-inactivated FBS. GP2D culture medium is prepared with DMEM with 2mM glutamine and 10% heat-inactivated FBS. A Cell Titer-Glo (CTG) luminescent based assay (Promega) is used to assess growth of the cells, as a measurement of the ability of the compounds herein to inhibit Ras signaling in the cells. The cells (e.g., 800 per well) are seeded in their respective culture medium in standard tissue culture-treated 384-well format plates (Falcon #08-772-116) or ultra-low attachment surface 384-well format plates (S-Bio # MS-9384UZ ). The day after plating, cells are treated with a dilution series (e.g., a 9 point 3-fold dilution series) of the compounds herein (e.g., approximately 40 µl final volume per well). Cell viability can be monitored (e.g., approximately 5 days later) according to the manufacturer's recommended instructions, where the CellTiter-Glo reagent is added (e.g., approximately 10 µl), vigorously mixed, covered, and placed on a plate shaker (e.g., approximately for 20 min) to ensure sufficient cell lysis prior to assessment of luminescent signal. The IC50 values are determined using the four parameter fit. The resulting IC50 value is a measurement of the ability of the compounds herein to reduce cell growth of Ras-driven cells (e.g., tumor cell lines) in vitro and/or in vivo.
A general note: ATP-based viability assays read luminescence as a measure of living cells.

Another test concerns the target T1, K-Ras G12S (Homo sapiens, UniProt P01116, G12S).
T1 construct: made in house; host or cells: E. coli (e.g., BL21 (DE3))
Description: HTRF assay of the K-Ras / SOS1 interaction. It is filed as biochemical. The note with it: IC50 (against K-Ras G12D) to IC50 (against K-Ras G12S). The method in brief:
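Compounds (duplicates, 10 µM to 0.01 µM) were incubated ≥~10 min with Eu-labelled GST-K-Ras G12S and XL665-labelled His-hSOS1 in HEPES pH 7.4 buffer containing NaCl, DTT, BSA and Igepal. Disruption measured as HTRF emission ratio 665/620 nm, fitted to IC50.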

The structures appear in SMILES notation. pIC50: −log10 of the molar value. Like-named read-outs stand apart in the source and are kept apart here. Some results are limits rather than exact numbers.

T1 sequence (P01116 1-188 isoform P01116-2 G12S): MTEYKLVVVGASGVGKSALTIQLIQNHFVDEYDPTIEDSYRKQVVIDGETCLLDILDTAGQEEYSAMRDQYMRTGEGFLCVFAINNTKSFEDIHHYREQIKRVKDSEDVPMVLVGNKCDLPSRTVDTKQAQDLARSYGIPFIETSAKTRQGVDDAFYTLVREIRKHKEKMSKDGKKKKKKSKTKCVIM

The pIC50 is −log10 of the IC50, conventionally taken in molar units. Consider `Nc1nc2c(-c3c(Cl)cc4c(N5CC6CCC(C5)N6C(=O)n5cccn5)nc(OC[C@@]56CCCN5C[C@H](F)C6)nc4c3F)ccc(F)c2s1` [Compound A130, (3-(7-(2-amino-7-fluorobenzo[d]thiazol-4-yl)-6-chloro-8-fluoro-2-(((2R,7aS)-2-fluorotetrahydro-1H-pyrrolizin-7a(5H)-yl)methoxy)quinazolin-4-yl)-3,8-diazabicyclo[3.2.1]octan-8-yl)(1H-pyrazol-1-yl)methanone], for which the pIC50 with GP2D cells (GP2d) was 5.00 to 6.00. Besides, the “Ratio of IC50 KRAS G12D vs. IC50 KRAS G12S” value (“Ratio” below) at K-Ras G12S is “A (A: indicates that the ratio of IC50 against KrasG12D vs. IC50 against KrasG12S is 1-fold or greater)”.
In the case of `Nc1nc2c(-c3c(Cl)cc4c(N5CC6CCC(C5)N6C(=O)n5cnc(F)c5)nc(OC[C@@]56CCCN5C[C@H](F)C6)nc4c3F)ccc(F)c2s1` [Compound A135, (3-(7-(2-amino-7-fluorobenzo[d]thiazol-4-yl)-6-chloro-8-fluoro-2-(((2R,7aS)-2-fluorotetrahydro-1H-pyrrolizin-7a(5H)-yl)methoxy)quinazolin-4-yl)-3,8-diazabicyclo[3.2.1]octan-8-yl)(4-fluoro-1H-imidazol-1-yl)methanone], in the test with GP2D cells (GP2d), the pIC50 is no less than 6.00. The “Ratio” value at K-Ras G12S is given as “A (A: indicates that the ratio of IC50 against KrasG12D vs. IC50 against KrasG12S is 1-fold or greater)”.
In the case of `N#Cc1c(N)sc2c(F)ccc(-c3c(Cl)cc4c(N5CC6CCC(C5)N6C(=O)n5cccc5C#N)nc(OC[C@@]56CCCN5C[C@H](F)C6)nc4c3F)c12` [Compound A138, 1-(3-(7-(2-amino-3-cyano-7-fluorobenzo[b]thiophen-4-yl)-6-chloro-8-fluoro-2-(((2R,7aS)-2-fluorotetrahydro-1H-pyrrolizin-7a(5H)-yl)methoxy)quinazolin-4-yl)-3,8-diazabicyclo[3.2. 1]octane-8-carbonyl)-1H-pyrrole-2-carbonitrile], the negative-log IC50 (pIC50) in the test on GP2D cells (GP2d) was no less than 6.00. Further, the “Ratio” value at K-Ras G12S is “A (A: indicates that the ratio of IC50 against KrasG12D vs. IC50 against KrasG12S is 1-fold or greater)”.
As for `Nc1nc2c(-c3c(Cl)cc4c(N5CCCC56CCCN(C(=O)n5cncn5)C6)nc(OC[C@@]56CCCN5C[C@H](F)C6)nc4c3F)ccc(F)c2s1` (stereo partly drawn) [Compound A144, (1-(7-(2-amino-7-fluorobenzo[d]thiazol-4-yl)-6-chloro-8-fluoro-2-(((2R,7aS)-2-fluorotetrahydro-1H-pyrrolizin-7a(5H)-yl)methoxy)quinazolin-4-yl)-1,7-diazaspiro[4.5]decan-7-yl)(1H-1,2,4-triazol-1-yl)methanone], in the test with GP2D cells (GP2D cells (K-Ras G12D)), the negative-log IC50 (pIC50) is 5.00 to 6.00. For the same molecule, the “Ratio” value on K-Ras G12S is “A (A: indicates that the ratio of IC50 against KrasG12D vs. IC50 against KrasG12S is 1-fold or greater)”.
Turning to `Cc1cnn(C(=O)N2CCN(c3nc(OC[C@@]45CCCN4C[C@H](F)C5)nc4c(F)c(-c5ccc(F)c6sc(N)nc56)c(Cl)cc34)CC2)c1` [Compound A149, (4-(7-(2-amino-7-fluorobenzo[d]thiazol-4-yl)-6-chloro-8-fluoro-2-(((2R,7aS)-2-fluorotetrahydro-1H-pyrrolizin-7a(5H)-yl)methoxy)quinazolin-4-yl)piperazin-1-yl)(4-methyl-1H-pyrazol-1-yl)methanone], the pIC50 in the test with GP2D cells (GP2D cells (K-Ras G12D)) is 5.00 to 6.00. Moreover, at K-Ras G12S, the “Ratio” value was “A (A: indicates that the ratio of IC50 against KrasG12D vs. IC50 against KrasG12S is 1-fold or greater)”.
The like results for `N#Cc1cnn(C(=O)N2CCC(Nc3nc(OC[C@@]45CCCN4C[C@H](F)C5)nc4c(F)c(-c5ccc(F)c6sc(N)nc56)c(Cl)cc34)CC2)c1` [Compound A151, 1-(4-((7-(2-amino-7-fluorobenzo[d]thiazol-4-yl)-6-chloro-8-fluoro-2-(((2R,7aS)-2-fluorotetrahydro-1H-pyrrolizin-7a(5H)-yl)methoxy)quinazolin-4-yl)amino)piperidine-1-carbonyl)-1H-pyrazole-4-carbonitrile] were, in that order, 5.00 to 6.00 and “A (A: indicates that the ratio of IC50 against KrasG12D vs. IC50 against KrasG12S is 1-fold or greater)”.
For the molecule `Nc1nc2c(-c3c(Cl)cc4c(NCCN5CCN(C(=O)n6cncn6)CC5)nc(OC[C@@]56CCCN5C[C@H](F)C6)nc4c3F)ccc(F)c2s1` [Compound A156, (4-(2-((7-(2-amino-7-fluorobenzo[d]thiazol-4-yl)-6-chloro-8-fluoro-2-(((2R,7aS)-2-fluorotetrahydro-1H-pyrrolizin-7a(5H)-yl)methoxy)quinazolin-4-yl)amino)ethyl)piperazin-1-yl)(1H-1,2,4-triazol-1-yl)methanone], the negative-log IC50 (pIC50) in the test with GP2D cells (GP2D cells (K-Ras G12D)) was 5.00 to 6.00. Further, the “Ratio” value on K-Ras G12S is listed as “A (A: indicates that the ratio of IC50 against KrasG12D vs. IC50 against KrasG12S is 1-fold or greater)”.
For `Nc1nc2c(-c3c(Cl)cc4c(NCCN5CC6CCC(C5)N6C(=O)n5cncn5)nc(OC[C@@]56CCCN5C[C@H](F)C6)nc4c3F)ccc(F)c2s1` [Compound A168, (3-(2-((7-(2-amino-7-fluorobenzo[d]thiazol-4-yl)-6-chloro-8-fluoro-2-(((2R,7aS)-2-fluorotetrahydro-1H-pyrrolizin-7a(5H)-yl)methoxy)quinazolin-4-yl)amino)ethyl)-3,8-diazabicyclo[3.2.1]octan-8-yl)(1H-1,2,4-triazol-1-yl)methanone], the pIC50 with GP2D cells (GP2d) was 5.00 to 6.00. Further, the “Ratio” value on K-Ras G12S is on record as “A (A: indicates that the ratio of IC50 against KrasG12D vs. IC50 against KrasG12S is 1-fold or greater)”.
Take `Nc1nc2c(-c3c(Cl)cc4c(NC5CCN(C(=O)n6cncn6)CC5)nc(OC[C@@]56CCCN5C[C@H](F)C6)nc4c3F)ccc(F)c2s1` [Compound A187, (4-((7-(2-amino-7-fluorobenzo[d]thiazol-4-yl)-6-chloro-8-fluoro-2-(((2R,7aS)-2-fluorotetrahydro-1H-pyrrolizin-7a(5H)-yl)methoxy)quinazolin-4-yl)amino)piperidin-1-yl)(1H-1,2,4-triazol-1-yl)methanone]: the pIC50 in the test with GP2D cells (GP2D cells (K-Ras G12D)) is 5.00 to 6.00. Further, at K-Ras G12S, the “Ratio” value is listed as “A (A: indicates that the ratio of IC50 against KrasG12D vs. IC50 against KrasG12S is 1-fold or greater)”.
Take `N#Cc1ccn(C(=O)N2C3CCC2CN(c2nc(OC[C@@]45CCCN4C[C@H](F)C5)nc4c(F)c(-c5ccc(F)c6sc(N)nc56)c(Cl)cc24)C3)c1` [Compound A188, 1-(3-(7-(2-amino-7-fluorobenzo[d]thiazol-4-yl)-6-chloro-8-fluoro-2-(((2R,7aS)-2-fluorotetrahydro-1H-pyrrolizin-7a(5H)-yl)methoxy)quinazolin-4-yl)-3,8-diazabicyclo[3.2. 1]octane-8-carbonyl)-1H-pyrrole-3-carbonitrile]: the pIC50 with GP2D cells (GP2d) was no less than 6.00. Further, the “Ratio” value at K-Ras G12S is listed as “A (A: indicates that the ratio of IC50 against KrasG12D vs. IC50 against KrasG12S is 1-fold or greater)”.
For the molecule `Nc1nc2c(-c3c(Cl)cc4c(NC5CCN(C(=O)n6cnc(F)c6)CC5)nc(OC[C@@]56CCCN5C[C@H](F)C6)nc4c3F)ccc(F)c2s1` [Compound A193, (4-((7-(2-amino-7-fluorobenzo[d]thiazol-4-yl)-6-chloro-8-fluoro-2-(((2R,7aS)-2-fluorotetrahydro-1H-pyrrolizin-7a(5H)-yl)methoxy)quinazolin-4-yl)amino)piperidin-1-yl)(4-fluoro-1H-imidazol-1-yl)methanone], the pIC50 in the test with GP2D cells (GP2D cells (K-Ras G12D)) is 5.00 to 6.00. For the same molecule, the “Ratio” value at K-Ras G12S is listed as “A (A: indicates that the ratio of IC50 against KrasG12D vs. IC50 against KrasG12S is 1-fold or greater)”.
Regarding `Cc1cnn(C(=O)N2CCN(c3nc(OC[C@@]45CCCN4C[C@H](F)C5)nc4c(F)c(-c5ccc(F)c6sc(N)nc56)c(Cl)cc34)CC(F)(F)C2)c1` [Compound A203, (4-(7-(2-amino-7-fluorobenzo[d]thiazol-4-yl)-6-chloro-8-fluoro-2-(((2R,7aS)-2-fluorotetrahydro-1H-pyrrolizin-7a(5H)-yl)methoxy)quinazolm-4-yl)-6,6-difluoro-1,4-diazepan-1-yl)(4-methyl-1H-pyrazol-1-yl)methanone], in the test with GP2D cells (GP2D cells (K-Ras G12D)), the negative logarithm of the IC50 (pIC50) is 5.00 to 6.00. The “Ratio” value at K-Ras G12S is given as “A (A: indicates that the ratio of IC50 against KrasG12D vs. IC50 against KrasG12S is 1-fold or greater)”.

These data come from patent EP4389751A1, “HETEROCYCLIC COMPOUNDS AND USES THEREOF” (Kumquat Biosciences Inc., priority 2021, dated 2024).
